# Measurements taken from ChEMBL document CHEMBL5137046, “Discovery of novel 2,3-dihydro-1H-inden-1-ones as dual PDE4/AChE inhibitors with more potency against neuroinflammation for the treatment of Alzheimer's disease” (Eur J Med Chem, 2022).
# Activity calls are given as the source filed them. The calls are words filed in the database; no cut-off is given here.
# Biological target: 3',5'-cyclic-AMP phosphodiesterase 4D (Homo sapiens, UniProt Q08499)
# Test: Inhibition of PDE4D7 (unknown origin) at 10 uM
# Conditions: not given
# Chain of 3',5'-cyclic-AMP phosphodiesterase 4D (Q08499 whole entry): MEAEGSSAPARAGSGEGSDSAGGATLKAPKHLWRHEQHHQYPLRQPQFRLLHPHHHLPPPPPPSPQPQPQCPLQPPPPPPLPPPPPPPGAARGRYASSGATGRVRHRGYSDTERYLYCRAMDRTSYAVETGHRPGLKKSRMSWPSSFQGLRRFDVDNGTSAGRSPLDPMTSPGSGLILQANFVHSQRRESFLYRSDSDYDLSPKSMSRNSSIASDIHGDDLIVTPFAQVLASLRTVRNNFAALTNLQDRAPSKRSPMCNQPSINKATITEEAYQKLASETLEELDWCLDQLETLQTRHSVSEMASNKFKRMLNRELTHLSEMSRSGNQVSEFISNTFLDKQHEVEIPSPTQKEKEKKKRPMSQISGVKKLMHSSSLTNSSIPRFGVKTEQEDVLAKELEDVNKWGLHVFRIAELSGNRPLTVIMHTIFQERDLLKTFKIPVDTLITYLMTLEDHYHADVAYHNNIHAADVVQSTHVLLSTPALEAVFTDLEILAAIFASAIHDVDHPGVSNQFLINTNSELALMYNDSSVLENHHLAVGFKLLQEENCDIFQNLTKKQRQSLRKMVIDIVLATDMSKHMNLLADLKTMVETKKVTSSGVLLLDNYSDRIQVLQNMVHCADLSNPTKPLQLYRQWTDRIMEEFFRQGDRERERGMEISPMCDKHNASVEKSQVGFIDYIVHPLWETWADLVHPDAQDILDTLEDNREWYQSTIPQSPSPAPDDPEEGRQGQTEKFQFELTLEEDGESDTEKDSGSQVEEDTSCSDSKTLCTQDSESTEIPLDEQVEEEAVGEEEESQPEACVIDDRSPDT
row,Structure (SMILES),inhibition
1,COc1cc2c(cc1OCC1CC1)CC(CC1CCNCC1)C2=O (stereo unspecified),< 10%
2,COc1cc2c(cc1OCC(C)C)C(=O)C(CC1CCNCC1)C2 (stereo unspecified),< 10%
3,COc1cc2c(cc1OC1CCCC1)C/C(=C\c1cccnc1)C2=O,< 10%
4,COc1cc2c(cc1OCC(C)C)C(=O)C(Cc1ccncc1)C2 (stereo unspecified),34%
5,COc1cc2c(cc1OCC1CC1)CC(CC1CCN(Cc3ccccc3)CC1)C2=O (stereo unspecified),< 10%
6,COc1cc2c(cc1OC1CCCC1)CC(CC1CCNCC1)C2=O (stereo unspecified),< 10%
7,COc1cc2c(cc1OC1CCCC1)C(=O)/C(=C/c1ccccn1)C2,11%
8,COc1cc2c(cc1OC1CCCC1)C(=O)C(CC1CCN(Cc3ccccc3)CC1)C2 (stereo unspecified),< 10%
9,COc1cc2c(cc1OCCN1CCCC1)C(=O)C(Cc1ccncc1)C2 (stereo unspecified),< 10%
10,COc1cc2c(cc1OCC1CC1)C(=O)C(CC1CCN(Cc3ccccc3)CC1)C2 (stereo unspecified),< 10%
11,COc1cc2c(cc1OCC(C)C)CC(CC1CCN(Cc3ccccc3)CC1)C2=O (stereo unspecified),< 10%
12,COc1cc2c(cc1OCC1CC1)C(=O)C(CC1CCNCC1)C2 (stereo unspecified),< 10%
13,COc1cc2c(cc1OC1CCCC1)CC(CC1CCN(Cc3ccccc3)CC1)C2=O (stereo unspecified),< 10%
14,COc1cc2c(cc1OC1CCCC1)C(=O)C(CC1CCNCC1)C2 (stereo unspecified),< 10%

# Biological target: Acetylcholinesterase (Electrophorus electricus) (UniProt O42275)
# Test: Inhibition of electric eel AChE using acetylthiocholine iodide as substrate at 1 uM preincubated with enzyme for 20 mins followed by substrate addition and measured after 10 mins by Ellman's method
# Conditions: time 30.0 min
# Chain of Acetylcholinesterase (Electrophorus electricus) (O42275 24-633 limits assumed): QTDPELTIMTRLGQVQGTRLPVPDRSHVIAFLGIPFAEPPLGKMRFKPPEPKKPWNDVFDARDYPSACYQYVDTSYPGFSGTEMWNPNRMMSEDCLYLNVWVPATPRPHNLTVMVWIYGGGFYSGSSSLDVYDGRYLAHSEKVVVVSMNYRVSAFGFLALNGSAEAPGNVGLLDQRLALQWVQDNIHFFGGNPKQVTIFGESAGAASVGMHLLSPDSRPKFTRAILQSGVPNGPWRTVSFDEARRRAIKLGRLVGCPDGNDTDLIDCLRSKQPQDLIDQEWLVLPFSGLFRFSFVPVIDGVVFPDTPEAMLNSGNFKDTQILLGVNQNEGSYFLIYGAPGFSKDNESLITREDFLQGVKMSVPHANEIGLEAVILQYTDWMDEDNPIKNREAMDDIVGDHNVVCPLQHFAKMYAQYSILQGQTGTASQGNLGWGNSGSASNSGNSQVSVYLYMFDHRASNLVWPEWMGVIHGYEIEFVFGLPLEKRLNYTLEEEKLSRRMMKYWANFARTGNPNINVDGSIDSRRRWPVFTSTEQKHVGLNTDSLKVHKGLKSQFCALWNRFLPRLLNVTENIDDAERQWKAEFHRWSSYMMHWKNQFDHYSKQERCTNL
row,Structure (SMILES),inhibition
1,COc1ccc(CC2Cc3cc(OC)c(OCCN4CCCC4)cc3C2=O)cc1 (stereo unspecified),20%

# Biological target: Acetylcholinesterase (Electrophorus electricus, UniProt O42275)
# Test: Inhibition of electric eel AChE using acetylthiocholine iodide as substrate preincubated with enzyme for 20 mins followed by substrate addition and measured after 10 mins by Ellman's method
# Conditions: not given
# Chain of Acetylcholinesterase (O42275 whole entry): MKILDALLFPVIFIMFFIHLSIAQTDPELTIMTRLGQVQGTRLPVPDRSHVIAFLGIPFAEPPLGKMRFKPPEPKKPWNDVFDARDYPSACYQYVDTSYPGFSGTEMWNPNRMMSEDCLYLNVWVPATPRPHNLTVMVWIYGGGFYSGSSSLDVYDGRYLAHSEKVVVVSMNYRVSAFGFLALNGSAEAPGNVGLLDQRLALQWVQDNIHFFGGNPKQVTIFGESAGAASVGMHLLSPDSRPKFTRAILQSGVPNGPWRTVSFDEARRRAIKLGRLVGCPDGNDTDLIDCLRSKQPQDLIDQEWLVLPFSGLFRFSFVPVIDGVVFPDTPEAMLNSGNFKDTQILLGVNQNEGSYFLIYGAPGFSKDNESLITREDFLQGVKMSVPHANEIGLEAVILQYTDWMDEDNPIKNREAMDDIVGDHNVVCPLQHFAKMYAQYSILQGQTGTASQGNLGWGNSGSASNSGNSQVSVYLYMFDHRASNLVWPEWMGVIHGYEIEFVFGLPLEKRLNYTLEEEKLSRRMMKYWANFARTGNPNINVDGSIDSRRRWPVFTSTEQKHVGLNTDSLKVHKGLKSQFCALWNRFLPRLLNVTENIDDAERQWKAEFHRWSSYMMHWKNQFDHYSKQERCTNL
row,Structure (SMILES),IC50
1,COc1cc2c(cc1OC1CCCC1)C/C(=C\c1cccnc1)C2=O,11700 nM
2,COc1cc2c(cc1OCC1CC1)CC(CC1CCN(Cc3ccccc3)CC1)C2=O (stereo unspecified),210 nM
3,COc1cc2c(cc1OC1CCCC1)C(=O)C(CC1CCN(Cc3ccccc3)CC1)C2 (stereo unspecified),58 nM
4,COc1cc2c(cc1OCCN1CCCC1)C(=O)C(Cc1ccncc1)C2 (stereo unspecified),1080 nM
5,COc1cc2c(cc1OCC1CC1)C(=O)C(CC1CCN(Cc3ccccc3)CC1)C2 (stereo unspecified),45 nM
6,COc1cc2c(cc1OCC(C)C)CC(CC1CCN(Cc3ccccc3)CC1)C2=O (stereo unspecified),210 nM
7,COc1cc2c(cc1OC1CCCC1)CC(CC1CCN(Cc3ccccc3)CC1)C2=O (stereo unspecified),210 nM

# System: PC-12
# Test: Neuroprotective activity against rat PC-12 cells assessed as inhibition of Abeta(25-35)-induced cytotoxicity by measuring increase in cell viability at 10 uM incubated for 24 hrs by MTT assay
# Format: functional, cell-based
# Conditions: not given
row,Structure (SMILES),Activity
1,COc1ccc(C2CNC(=O)C2)cc1OC1CCCC1 (stereo unspecified),Active

# Biological target: Acetylcholinesterase (Electrophorus electricus) (UniProt O42275)
# Test: Inhibition of electric eel AChE using acetylthiocholine iodide as substrate at 10 uM preincubated with enzyme for 20 mins followed by substrate addition and measured after 10 mins by Ellman's method
# Conditions: time 30.0 min
row,Structure (SMILES),inhibition
1,COc1cc2c(cc1OCC1CC1)CC(CC1CCNCC1)C2=O (stereo unspecified),25%
2,COc1cc2c(cc1OCC(C)C)C(=O)C(CC1CCNCC1)C2 (stereo unspecified),12%
3,COc1cc2c(cc1OC1CCCC1)C/C(=C\c1cccnc1)C2=O,50%
4,COc1cc2c(cc1OCC(C)C)C(=O)C(Cc1ccncc1)C2 (stereo unspecified),14%
5,COc1cc2c(cc1OC1CCCC1)CC(CC1CCNCC1)C2=O (stereo unspecified),19%
6,COc1cc2c(cc1OC1CCCC1)C(=O)/C(=C/c1ccccn1)C2,39%
7,COc1cc2c(cc1OCC1CC1)C(=O)C(CC1CCNCC1)C2 (stereo unspecified),21%
8,COc1cc2c(cc1OC1CCCC1)C(=O)C(CC1CCNCC1)C2 (stereo unspecified),11%
